Test systems include U251 CNS; HCC-2998 colon; UACC-257 melanoma; UO-31 renal; HL-60(TB) leukemia; HOP-62 NSCLC; NCI-H226 lung; DU-145 prostate; A549 NSCLC; NCI-H460 lung.
Test in all cases: NCI anticancer screen, dose series, 48 h

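All cell lines were grown in 96-well plates and treated with compound for 48 hours. Here, GI50 denotes the concentration required for 50% inhibition of growth. Definition used: TGI = concentration required for complete inhibition of growth.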

In PubChem BioAssay (NCI) one finds GI50 and TGI data, which are given here for ten molecules.

`COc1cc2cn3c4ccc(O)cc4[nH]c(=O)c3c2cc1OC`: the GI50 is less than 0.01 µM in the experiment on U251 CNS; 0.0307 µM with HCC-2998 colon; less than 0.0212 µM in the experiment with UACC-257 melanoma; 0.0398 µM with UO-31 renal; 0.0264 µM with HL-60(TB) leukemia; 0.0338 µM with HOP-62 NSCLC. Also, the results for the GI50 with NCI-H226 lung, with DU-145 prostate and in the experiment on A549 NSCLC were 0.0374 µM, 0.0229 µM and 0.042 µM, respectively. The TGI is 1.23 µM in the experiment with U251 CNS; 1.61 µM with HCC-2998 colon; 0.419 µM in the experiment on UACC-257 melanoma; 1.64 µM with UO-31 renal; 2.3 µM in the experiment on HL-60(TB) leukemia; 1.81 µM with HOP-62 NSCLC. Besides, the TGI with NCI-H226 lung was determined as 16.8 µM; in the experiment on DU-145 prostate, 1.25 µM; in the experiment on A549 NSCLC, 1.3 µM.
As for `O=C(O)c1ccccc1-c1ccccc1C(=O)Nc1ccc2c(c1)Cc1cc(F)ccc1-2`, the TGI in the experiment with U251 CNS is 50.2 µM; with HCC-2998 colon, 33.8 µM; with NCI-H460 lung, 68.2 µM; with UACC-257 melanoma it was 52.2 µM; with UO-31 renal, more than 100 µM; in the experiment on HOP-62 NSCLC it was 87.4 µM. Moreover, the TGI is more than 100 µM in the experiment with NCI-H226 lung, more than 100 µM with DU-145 prostate and 85.9 µM in the experiment on A549 NSCLC.
`CC(=O)c1c(CBr)n([O-])c2ccccc2[n+]1=O`: the GI50 with U251 CNS was 16.2 µM; with HCC-2998 colon it was 17.6 µM; in the experiment on UACC-257 melanoma, 16.7 µM; in the experiment with UO-31 renal it was 5.51 µM; with HL-60(TB) leukemia it was 5.49 µM; in the experiment on HOP-62 NSCLC, 15.6 µM. Moreover, the GI50 with NCI-H226 lung is 13.4 µM; with DU-145 prostate it was 12.8 µM; in the experiment with A549 NSCLC, 23.1 µM. Besides, the TGI with U251 CNS amounted to 29.9 µM; in the experiment with HCC-2998 colon it was 34.5 µM; with UACC-257 melanoma it was 32.9 µM; in the experiment with UO-31 renal, 19 µM; with HL-60(TB) leukemia, 22.6 µM; in the experiment on HOP-62 NSCLC it was 29.7 µM. Also, the TGI was 28 µM with NCI-H226 lung, 25.5 µM in the experiment with DU-145 prostate and 57 µM in the experiment with A549 NSCLC.
Turning to `CCCCCc1c(C)[nH]c(/C=C2\N=C(c3ccc[nH]3)C=C2CC)c1C`, the GI50 in the experiment with U251 CNS was less than 0.01 µM; with HCC-2998 colon, less than 0.01 µM; in the experiment on UACC-257 melanoma, 0.0286 µM; with UO-31 renal, 0.0134 µM; with HL-60(TB) leukemia, 0.0151 µM; in the experiment on HOP-62 NSCLC, 0.0128 µM. Besides, the GI50 was less than 0.0131 µM with NCI-H226 lung, less than 0.01 µM with DU-145 prostate and less than 0.0125 µM with A549 NSCLC. Also, the TGI with U251 CNS was 0.135 µM; with HCC-2998 colon, 0.174 µM; with UACC-257 melanoma, 0.167 µM; with UO-31 renal, 0.0357 µM; with HL-60(TB) leukemia, 0.0814 µM; in the experiment with HOP-62 NSCLC it was 0.0795 µM. Also, the TGI with NCI-H226 lung worked out at 0.0452 µM; with DU-145 prostate, 1.19 µM; in the experiment on A549 NSCLC, 0.0846 µM.
In the case of `COC(COC(=O)N1CCN(C=O)CC1)C1=C(N2CC2)C(=O)C(C)=C(N2CC2)C1=O` (configuration not stated), the TGI with U251 CNS is 2.71 µM; in the experiment on HCC-2998 colon, 38.1 µM; in the experiment on NCI-H460 lung it was 0.8 µM; in the experiment on UACC-257 melanoma, 1.9 µM; with UO-31 renal, 3.19 µM; in the experiment on HOP-62 NSCLC, 6.57 µM. Also, the TGI worked out at 3.05 µM with NCI-H226 lung, 4.01 µM in the experiment on DU-145 prostate and 2.71 µM in the experiment with A549 NSCLC.
On to `Nc1nc(Nc2ccccc2)c2ncn(Cc3cc4c(cc3Br)OCO4)c2n1`, for which the GI50 was 0.12 µM with U251 CNS; 0.205 µM in the experiment on HCC-2998 colon; 0.0304 µM in the experiment on NCI-H460 lung; 0.129 µM in the experiment with UO-31 renal; 0.0358 µM with HL-60(TB) leukemia; 0.0675 µM in the experiment with HOP-62 NSCLC. For the same molecule, the values for the GI50 in the experiment with NCI-H226 lung, in the experiment on DU-145 prostate and in the experiment on A549 NSCLC were 0.777 µM, 0.184 µM and 0.0491 µM, respectively. The TGI with U251 CNS is 1.45 µM; in the experiment with HCC-2998 colon, more than 32.7 µM; in the experiment with NCI-H460 lung, 17.6 µM; with UO-31 renal, more than 100 µM; with HL-60(TB) leukemia, 1.26 µM; in the experiment with HOP-62 NSCLC it was 7.65 µM. The TGI worked out at 31.5 µM in the experiment with NCI-H226 lung, 13.7 µM in the experiment on DU-145 prostate and 11.5 µM in the experiment on A549 NSCLC.
In the case of `O=C(Nc1cccc(Cl)c1Cl)c1cccc(NC2=C(Cl)C(=O)N(Cc3ccccc3)C2=O)c1`, the GI50 was 46.2 µM in the experiment with U251 CNS; 22.4 µM in the experiment on NCI-H460 lung; 23.3 µM in the experiment with UACC-257 melanoma; 21.1 µM in the experiment with UO-31 renal; 10.5 µM in the experiment with HL-60(TB) leukemia; more than 100 µM in the experiment with HOP-62 NSCLC. Besides, the GI50 with NCI-H226 lung is 31.7 µM; in the experiment on DU-145 prostate, 21.2 µM; in the experiment on A549 NSCLC it was 36.2 µM. For the same molecule, the TGI is more than 100 µM with U251 CNS; 94.7 µM in the experiment on NCI-H460 lung; 72.3 µM with UACC-257 melanoma; more than 100 µM in the experiment on UO-31 renal; 30.7 µM with HL-60(TB) leukemia; more than 100 µM with HOP-62 NSCLC. Further, the TGI in the experiment with NCI-H226 lung, in the experiment on DU-145 prostate and in the experiment with A549 NSCLC was more than 100 µM throughout.
With `COc1cc(/C=C2\C(=O)Nc3ccc(F)cc32)cc(OC)c1OC`, the GI50 with U251 CNS is 13.5 µM; in the experiment on NCI-H460 lung, 19.6 µM; in the experiment on UACC-257 melanoma it was 87.6 µM; in the experiment on UO-31 renal, 11.9 µM; with HL-60(TB) leukemia it was 8.39 µM; in the experiment on HOP-62 NSCLC it was 35.8 µM. Further, the GI50 was 23.7 µM in the experiment with NCI-H226 lung, 18.4 µM in the experiment with DU-145 prostate and 51.8 µM in the experiment with A549 NSCLC. The TGI is 49.4 µM in the experiment on U251 CNS; more than 100 µM in the experiment on NCI-H460 lung; more than 100 µM in the experiment with UACC-257 melanoma; more than 100 µM with UO-31 renal; more than 100 µM in the experiment with HL-60(TB) leukemia; more than 100 µM with HOP-62 NSCLC. In addition, the TGI with NCI-H226 lung, in the experiment on DU-145 prostate and with A549 NSCLC was more than 100 µM in each case.
In the case of `CCOC(=O)C1=C(C)N(N)C(=S)NC1c1ccc(C)cc1` (configuration not stated), the GI50 was 24.1 µM in the experiment on U251 CNS; 0.811 µM with HCC-2998 colon; 24.4 µM with NCI-H460 lung; 36.2 µM with UACC-257 melanoma; 23.5 µM with UO-31 renal; more than 100 µM with HOP-62 NSCLC. In addition, the GI50 is 33.8 µM in the experiment on NCI-H226 lung and 94.6 µM with A549 NSCLC. Moreover, the TGI in the experiment on U251 CNS was more than 100 µM; in the experiment on HCC-2998 colon, 27.1 µM; with NCI-H460 lung it was more than 100 µM; with UACC-257 melanoma, more than 100 µM; in the experiment with UO-31 renal, more than 100 µM; with HOP-62 NSCLC, more than 100 µM. Moreover, the TGI was more than 100 µM in the experiment with NCI-H226 lung, 12.3 µM in the experiment on DU-145 prostate and more than 100 µM with A549 NSCLC.
Regarding `O=C(O)c1c(-c2nccc3ccccc23)[nH]c(-c2ccccc2)c1S(=O)(=O)O`, the TGI in the experiment with U251 CNS, with NCI-H460 lung, with UACC-257 melanoma, in the experiment on UO-31 renal, in the experiment with HL-60(TB) leukemia and in the experiment on HOP-62 NSCLC was more than 100 µM each time. Also, the TGI in the experiment on NCI-H226 lung, in the experiment on DU-145 prostate and in the experiment on A549 NSCLC was more than 100 µM each time.
